Test results as given in patent publication US20190300851A1, “HUMAN STEM CELL DERIVED ENDOTHELIAL CELLS, ENDOTHELIAL-HEPATOCYTE CO-CULTURE SYSTEM AND USES THEREOF” (AGENCY FOR SCIENCE, TECHNOLOGY AND RESEARCH, priority 2016, published 2019).
“Also recorded” adds a separate entry of the source.

Legend:
NFκB [1] = assay: NFκB nuclear translocation (immunostaining) in IL-1β-stimulated hPSC-ECs, monoculture; format: cell-based, human
Description: (§1) After the hPSC colonies attached, they were first induced to drive early mesoderm differentiation for 36 hours, using a chemically defined media, supplemented with human recombinant FGF2 (20 ng/ml, R&D Systems, cat. no. 233-FB), LY294002 (10 μM, Sigma, cat. no. L9908), and human recombinant BMP4 (10 ng/ml, R&D Systems, cat. no. 314-BP). Lateral plate mesoderm was further induced for another 3.5 days in media supplemented with human recombinant FGF2 (20 ng/ml) and BMP4 (50 ng/ml), with media change every 2 days. On day 5, the lateral plate mesoderm population was trypsinized using TrypLE Express (Gibco, cat. no. 12604) and plated on matrigel-coated plates in the same basal media supplemented with FGF2 (4 ng/ml), SB431542 (10 μM, Sigma, cat. no. S4317) and VEGF (50 ng/ml, R&D Systems, cat. no. 293-VE) with media change every 2-3 days. On day 10, PECAM1-expressing endothelial cells were sorted using fluorescence-activated cell sorting with PECAM1 antibody (Biolegend, cat. no. 303110). The PECAM1+ cells were plated at a density of 5×10^4/cm^2 onto collagen I-coated plate in commercial media EGM-2 (Lonza, cat. no. CC-3162). For every 500 ml EGM-2 media used, the following supplements are included: human epidermal growth factor (0.5 ml); VEGF, 0.5 ml; R3-insulin growth factor-1, 0.5 ml; Ascorbic acid, 0.5 ml; Hydrocortisone, 0.2 ml; hFibroblast growth factor-beta, 2.0 ml; FBS, 10.0 ml; Gentamicin Amphotericin, 0.5 ml. hPSC-ECs were passaged using TrypLE Express when they reached more than 75% confluency. Fresh complete EGM-2 media were replaced every 2-3 days. All experiments were performed on cells up to passage 10. hPSC-ECs derived from three different cell lines, H9-ESCs (FIGS. 1-5), IMR90-iPSCs and BJ-iPSCs (FIGS. 7-8), were functionally characterized and used in inflammatory activation assays. In EC marker and functional characterization, human coronary artery ECs (HCAECs) were used as positive control, while HeLa cells and human hepatocellular carcinoma cells (HUH7) were used as negative controls.
(§2) Cells were fixed with 4% paraformaldehyde (Nacalai Tesque, cat. no. 09154-14) and permeabilized by 0.5% Triton X-100 (Acros Organics, cat. no. 215680010) in PBS with Ca^2+ and MG^2+ at room temperature. Blocking was performed using PBS with 10% serum overnight at 4° C. Cells were incubated with the respective primary antibody diluted in 0.1% serum containing PBS for 1 hour and secondary antibodies in 0.1% serum containing PBS for another hour. Washes were performed twice using 0.1% serum containing PBS. DAPI (1 μg/ml, Thermo, cat. no. D3571) was used to stain the cell nucleus for 10 min.

[2] = tested on: IL-1β-stimulated hPSC-ECs; assay: Inflammatory marker gene expression (qPCR) in IL-1β-stimulated hPSC-ECs, monoculture; format: cell-based
Description: as §1
Total RNA was prepared using RNeasy mini kit (Qiagen, cat. no. 74104). Each RNA sample (250 ng) was reverse transcribed into cDNA using Maxima First Strand cDNA Synthesis kit (Thermo, cat. no. K1641). qPCR was performed on a StepOnePlus Real-Time PCR system (Thermo) using FAST SYBR green master mix (Thermo, cat. no. 4385616). Expression levels were normalized to the housekeeping gene glyceraldehyde 3-phosphate dehydrogenase (GAPDH).

IL-8 [3] = assay: IL-8 ELISA of conditioned media of IL-1β-stimulated hPSC-ECs, monoculture; format: cell-based, human
Description: as §1
(§3) Conditioned EGM-2 media were collected, and concentration of human IL-8 was determined using the human IL-8 ELISA kit (Invitrogen, cat. no. KHC0081) according to manufacturer's instructions.

IL-8 [4] = assay: IL-8 ELISA of conditioned media of IL-1β-stimulated hPSC-HEPs; format: cell-based, human; settings: 10 μM, 48 hours
Description: Hepatocytes were generated from hPSCs by a growth factor-based differentiation protocol described in our previous protocol. After 20 days of differentiation, the cells were harvested using a serial 2× TrypLE Express treatment and further dissociated into single cells by passing them through a 40 μm cell strainer. These single cells were then seeded at 2.5×10^5 cells per well in a Collagen I (50 μg/ml, Biolaboratories, Cat. No.: 354236)-coated dishes. Attachment and recovery were promoted by seeding them in step IV differentiation medium with Hepatocyte growth factor (R&D, Cat. No.: 294-HGN-005), Follistatin (R&D, Cat. No.: FS-288), Oncostatin (R&D, Cat. No.: 295-OM-010) and Y-27632 (Rock Inhibitor) to prevent anoikis in the freshly harvested hPSC-HEPs. Next day, media was changed to Williams E medium (Sigma, Cat. No.: W1878) without serum and cells were serum starved overnight prior to nutraceutical treatments. Nutraceuticals quercetin (Sigma, Cat. No.: Q4951) and genistein (Sigma, Cat. No.: G6649) were administered at a single dose of 10 μM. Hepatocytes in this work were derived from H9-ESCs. […]
as §3

[5] = tested on: IL-1β-stimulated hPSC-HEPs; assay: Inflammatory marker gene expression (qPCR) in IL-1β-stimulated hPSC-HEPs; format: cell-based, human; settings: 10 μM, 48 hours
Description: (§4) Hepatocytes were generated from hPSCs by a growth factor-based differentiation protocol described in our previous protocol. After 20 days of differentiation, the cells were harvested using a serial 2× TrypLE Express treatment and further dissociated into single cells by passing them through a 40 μm cell strainer. These single cells were then seeded at 2.5×10^5 cells per well in a Collagen I (50 μg/ml, Biolaboratories, Cat. No.: 354236)-coated dishes. Attachment and recovery were promoted by seeding them in step IV differentiation medium with Hepatocyte growth factor (R&D, Cat. No.: 294-HGN-005), Follistatin (R&D, Cat. No.: FS-288), Oncostatin (R&D, Cat. No.: 295-OM-010) and Y-27632 (Rock Inhibitor) to prevent anoikis in the freshly harvested hPSC-HEPs. Next day, media was changed to Williams E medium (Sigma, Cat. No.: W1878) without serum and cells were serum starved overnight prior to nutraceutical treatments. Nutraceuticals quercetin (Sigma, Cat. No.: Q4951) and genistein (Sigma, Cat. No.: G6649) were administered at a single dose of 10 μM. Hepatocytes in this work were derived from H9-ESCs. In hepatic characterization, primary human hepatocytes (PHH) and HUH7 cells were used as positive controls, while HeLa cells were used as negative control.
Total RNA was prepared using RNeasy mini kit (Qiagen, cat. no. 74104). […]

[6] = tested on: hPSC-HEP conditioned media treated on hPSC-ECs; assay: LC-MS metabolite profile in hPSC-HEP conditioned media treated on hPSC-ECs; format: in vitro ADME, human; settings: conditioned media setting
Description: (§5) HPSC-HEPs (1.25×10^5 cells/cm^2) were cultured for 48 hour in 1:1 William's E medium+EGM-2 without serum containing 10 μM Quercetin or 10 μM Genistein. Conditioned media from hPSC-HEPs treated with quercetin or genistein were collected, and added to hPSC-ECs (that were serum starved overnight) along with 20 ng/ml of IL-13 for determination of NFκB nuclear colocalization (at 1 hour), gene expression profile of inflammatory markers (at 6 hour), and IL-8 protein levels (1 day) upon inflammation.
(§6) The metabolic potential of the hPSC-HEPs and primary rat hepatocytes (freshly isolated according to our previously established protocol) were tested by exposing them to nutraceuticals quercetin and genistein (10 μM) over different durations. Internal standard (Emodin, 10 ng/ml) was added to the conditioned media. The SPE column (Phenomenex, Strata C18-E, 55 μm, 70 Å) was conditioned by washing with 1 ml methanol and then 2 ml DI water. Conditioned media was added into the column and 1.5 mL 30% methanol was added to elute the impurity such as phenol red in the medium. 0.1% Formic acid methanol was added to the column to elute all the metabolites and internal standard out to a 15 mL tube. Liquid in the 15 mL tube was dried under N2 in a sample concentrator with 30° C. heater. […]

[7] = plasma; cited from earlier work
IL-8 [8] = assay: Endothelial-hepatocyte co-culture: IL-8 protein; format: cell-based, human; settings: co-culture of hPSC-ECs with hPSC-HEPs, 10 μM for 48 hours prior to IL-1β stimulation
Description: (§7) H9-ESCs were used to generate the ECs and hepatocytes for co-culture experiments and assays with nutraceuticals. Both cell types were derived from an isogenic source of hPSC to ensure a robust endothelial-hepatic model without confounding phenotypic differences due to genetic variations. The IBIDI μ-slide 2×9 wells were used for creating the co-culture setup. Each minor well was first coated with Collagen I and then a total of 2.5×10^5 hPSC-ECs and hPSC-HEPs were seeded in individual wells in a 1:1 ratio within a major well to allow equivalent contribution of paracrine factors between the two cell types (FIG. 5A). After cell attachment, the media was changed to 1:1 William's E and EGM-2 without serum, to be commonly shared by hPSC-ECs and hPSC-HEPs in a major well. Upon overnight serum starvation, the co-cultures were pre-conditioned with 10 μM of Quercetin or Genistein for 48 hours prior to IL-1β stimulation.
as §3

[9] = tested on: co-culture of hPSC-ECs and hPSC-HEPs; assay: LC-MS metabolite profile in co-cultured media of hPSC-ECs and hPSC-HEPs; format: in vitro ADME, human; settings: endothelial-hepatic co-culture, LC-MS
Description: as §7
The metabolic potential of the hPSC-HEPs and primary rat hepatocytes (freshly isolated according to our previously established protocol) were tested by exposing them to nutraceuticals quercetin and genistein (10 μM) over different durations. Internal standard (Emodin, 10 ng/ml) was added to the conditioned media. The SPE column (Phenomenex, Strata C18-E, 55 μm, 70 Å) was conditioned by washing with 1 ml methanol and then 2 ml DI water. […]

NFκB [10] = assay: hPSC-HEP conditioned media on IL-1β-stimulated hPSC-ECs: NFκB nuclear translocation; format: cell-based, human; settings: hPSC-HEP conditioned media (10 μM, 48 hour) on IL-1β-stimulated hPSC-ECs
Description: as §5, §2

NFκB [11] = assay: Endothelial-hepatocyte co-culture: NFκB nuclear translocation in IL-1β-stimulated hPSC-ECs; format: cell-based, human; settings: co-culture of hPSC-ECs with hPSC-HEPs, 10 μM for 48 hours prior to IL-1β stimulation
Description: as §7
as §2, with “Washes were performed twice using 0.1% serum containing PBS. DAPI (1 μg/ml, Thermo, cat. no. D3571) was used to stain the cell nucleus for 10 min.” left out

hPSC-HEPs = assay: LC-MS metabolic profile of nutraceuticals by hPSC-HEPs; format: in vitro ADME, human; settings: 10 μM, LC-MS
Description: as §4, §6

primary rat hepatocytes = assay: LC-MS metabolic profile of nutraceuticals by primary rat hepatocytes; format: in vitro ADME; settings: 10 μM, LC-MS
Description: The metabolic potential of the hPSC-HEPs and primary rat hepatocytes (freshly isolated according to our previously established protocol) were tested by exposing them to nutraceuticals quercetin and genistein (10 μM) over different durations. Internal standard (Emodin, 10 ng/ml) was added to the conditioned media. The SPE column (Phenomenex, Strata C18-E, 55 μm, 70 Å) was conditioned by washing with 1 ml methanol and then 2 ml DI water. Conditioned media was added into the column and 1.5 mL 30% methanol was added to elute the impurity such as phenol red in the medium. 0.1% Formic acid methanol was added to the column to elute all the metabolites and internal standard out to a 15 mL tube. Liquid in the 15 mL tube was dried under N2 in a sample concentrator with 30° C. heater. After drying the sample, 100 μL of 0.1% formic acid methanol was added to the 15 mL tube and vortex for 30 s and transfer to another 1.5 mL tube. The samples were then centrifuged at 13,000 rpm for 10 min at 4° C. and 10 μl of the supernatant was injected into LC-MS. High performance liquid chromatography combined with electrospray ionization ion trap time-of-flight multistage mass spectrometry (HPLC-DAD-ESI-ITTOF-MSn) analyses were performed with a Shimadzu LCMS-IT-TOF instrument, which was composed of two LC-20AD pumps, an SIL-20AC autosampler, a CTO-20A column oven, a CBM-20A system controller, an ESI ion source, and an IT-TOF mass spectrometer (Shimadzu, Kyoto, Japan).

[12] = BJ-ECs and IMR90-ECs, IL-1β stimulation

## IL-1β: human recombinant inflammatory cytokine, interleukin-1 beta, used to stimulate inflammation [reference compound]
NFκB [1]; [12]
  NFκB nuclear translocation: increase
NFκB [1]; H9-derived hPSC-ECs, IL-1β 20 ng/ml, 1 hour
  nuclear translocation of NFκB: evident
[2]; [12]
  expression of inflammatory genes: up-regulation
[2]; H9-derived hPSC-ECs, human recombinant IL-1β 20 ng/ml, 6 hours
  expression of inflammatory genes versus unstimulated: significant up-regulation
IL-8 [3]; [12]
  IL-8 production: elevated
IL-8 [3]; H9-derived hPSC-ECs, IL-1β-stimulated
  production of IL-8 from conditioned media versus unstimulated cells: significantly higher

## O=c1c(-c2ccc(O)cc2)coc2cc(O)cc(O)c12 [genistein]
IL-8 [4]
  production of IL-8 protein from conditioned media: significantly suppressed
[5]
  inflammatory gene (marker) expression: significant reduction; also recorded: decreased most of the inflammatory marker expression
[6]
  metabolites detectable in medium: but not in the conditioned media setting
[7]
  plasma concentrations: 0.03 to 16.34 µM
NFκB [1]; 10 μM, IL-1β-stimulated hPSC-ECs, monoculture
  NFκB nuclear translocation levels: remained elevated
IL-8 [8]
  IL-8 protein levels / secretion: remarkably decreased; also recorded: significantly reduced
[9]
  metabolites detectable in medium: detectable levels of various metabolites
NFκB [10]
  NFκB nuclear translocation: did not seem to inhibit
NFκB [11]
  NFκB nuclear translocation (colocalization): significant suppression; also recorded: significantly decreased
[2]; 10 μM, up to 72 hours, IL-1β-stimulated hPSC-ECs, monoculture
  gene expression of inflammatory markers versus IL-1β stimulated levels: did not show substantial reduction
hPSC-HEPs; hPSC-HEPs
  levels of metabolites over time: increased over time; also recorded: increased with time; also recorded: giving rise to metabolites
hPSC-HEPs; in the presence of hPSC-HEPs
  level of parent nutraceutical over time: gradually declined over time
IL-8 [3]; 10 μM, 48 hours, IL-1β-stimulated hPSC-ECs, monoculture
  IL-8 protein levels from conditioned media: no significant reduction
Primary rat hepatocytes; freshly isolated primary rat hepatocytes
  level of parent nutraceutical over time: declined over time
Primary rat hepatocytes; primary rat hepatocytes
  formation of metabolites: giving rise to metabolites
